{"source": "PubChem BioAssay AID1259411", "about": "(Chemical Carcinogenesis Research Information System (CCRIS), 2018)", "test_system": "rodent carcinogenicity bioassays, tumor incidence", "assay": "CCRIS carcinogenicity studies", "in_short": "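Archive of carcinogenicity, mutagenicity, tumor promotion and tumor inhibition results drawn from journals, NCI reports and other sources, expert-reviewed; covers 1985-2011 and is no longer updated.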", "note": "The source made the active and inactive calls. The rule behind the calls is not given here.", "data": [{"smiles": "O.O=C([O-])c1ccccn1.O=C([O-])c1ccccn1.O=C([O-])c1ccccn1.[Cr+3]", "values": [{"measurement": "carcinogen call", "setting": "Species: Mouse, Strain/Sex: B6C3F1 /Female (50/Group), Route: Oral, Dose: 0, 2000, 10,000, 50,000 ppm (average daily doses of 0; 240; 1200; 6100 mg/kg) in diet for 105 wk, Dose: 0, 2000, 10,000, 50,000 ppm (average daily doses of 0; 240; 1200; 6100 mg/kg) in diet for 105 wk", "value": "inactive; negative"}, {"measurement": "carcinogen call", "setting": "Species: Mouse, Strain/Sex: B6C3F1/Female (50/Group), Route: Oral, Dose: 0, 2,000, 10,000, 50,000 ppm in diet for 105 wk (Study duration: 105 wk), Dose: 0, 2,000, 10,000, 50,000 ppm in diet for 105 wk (Study duration: 105 wk)", "value": "inactive; negative"}, {"measurement": "carcinogen call", "setting": "Species: Mouse, Strain/Sex: B6C3F1/Male (50/Group), Route: Oral, Dose: 0, 2000, 10,000, 50,000 ppm (average daily doses of 0; 250; 1200; 6565 mg/kg) in diet for 105 wk, Dose: 0, 2000, 10,000, 50,000 ppm (average daily doses of 0; 250; 1200; 6565 mg/kg) in diet for 105 wk", "value": "inactive; negative"}, {"measurement": "carcinogen call", "setting": "Species: Mouse, Strain/Sex: B6C3F1/Male (50/Group), Route: Oral, Dose: 0, 2,000, 10,000, 50,000 ppm in diet for 105 wk (Study duration: 105 wk), Dose: 0, 2,000, 10,000, 50,000 ppm in diet for 105 wk (Study duration: 105 wk)", "value": "inactive; negative"}, {"measurement": "carcinogen call", "setting": "Species: Rat, Strain/Sex: F344/N / Female (50/Group), Route: Oral, Dose: 0, 2000, 10,000, 50,000 ppm (average daily doses of 0; 100; 510; 2630 mg/kg) in diet for 105 wk, Dose: 0, 2000, 10,000, 50,000 ppm (average daily doses of 0; 100; 510; 2630 mg/kg) in diet for 105 wk", "value": "inactive; negative"}, {"measurement": "carcinogen call", "setting": "Species: Rat, Strain/Sex: F344/N / Female (50/Group), Route: Oral, Dose: 0, 2,000, 10,000, 50,000 ppm in diet for 105 wk (Study duration: 105 wk), Dose: 0, 2,000, 10,000, 50,000 ppm in diet for 105 wk (Study duration: 105 wk)", "value": "inactive; negative"}, {"measurement": "carcinogen call", "setting": "Species: Rat, Strain/Sex: F344/N / Male (50/Group), Route: Oral, Dose: 0, 2000, 10,000, 50,000 ppm (average daily doses of 0; 90; 460; 2400 mg/kg) in diet for 105 wk, Dose: 0, 2000, 10,000, 50,000 ppm (average daily doses of 0; 90; 460; 2400 mg/kg) in diet for 105 wk, Tumor Site: Type of Lesion: Preputial gland: adenoma (1/50, 1/50, 7/50, 4/50)", "value": "equivocal"}, {"measurement": "carcinogen call", "setting": "Species: Rat, Strain/Sex: F344/N / Male (50/Group), Route: Oral, Dose: 0, 2,000, 10,000, 50,000 ppm in diet for 105 wk (Study duration: 105 wk), Dose: 0, 2,000, 10,000, 50,000 ppm in diet for 105 wk (Study duration: 105 wk), Tumor Site: Type of Lesion: Preputial gland: adenoma (1, 1, 7, 4; P</=0.05 at 10,000 ppm only)", "value": "inactive; negative. authors describe as equivocal evidence of carcinogenicity."}]}, {"smiles": "O=C1NC(=O)C(=O)C(=O)N1", "values": [{"measurement": "carcinogen call", "setting": "Species: Rat, Strain/Sex: WBN/Kob (Diabetic)/Female (17/group), Route: Intravenous, Dose: 0, 40 mg/kg once, study duration 75 wks, Tumor Site: Type of Lesion: Forestomach: squamous cell carcinoma", "value": "active; positive"}, {"measurement": "carcinogen call", "setting": "Species: Rat, Strain/Sex: WBN/Kob (Diabetic)/Male (31/ group), Route: Intravenous, Dose: 0, 50 mg/kg once, study duration 75 wks, Tumor Site: Type of Lesion: Forestomach: squamous cell carcinoma", "value": "active; positive"}]}, {"smiles": "C", "values": [{"measurement": "carcinogen call", "setting": "Species: MOUSE, Strain/Sex: NMRI/FEMALE, Route: INHALATION, Dose: 0, 7.4 MG/M3 18 HR/D 5 D/WK FOR 4 MO INCREASED TO 12.2 MG/M3 FOR 9.5 MO FOLLOWED BY CLEAN AIR FOR 9.5 MO (STUDY DURATION", "value": "inactive; negative"}, {"measurement": "carcinogen call", "setting": "Species: RAT, Strain/Sex: F344/FEMALE, Route: INHALATION, Dose: 0, 2.5, 6.5 MG/M3 IN AIR 16 HR/D 5 D/WK FOR 24 MO (STUDY DURATION: 25.5 MO), Dose: 0, 2.5, 6.5 MG/M3 IN AIR 16 HR/D 5 D/WK FOR 24 MO (STUDY DURATION: 25.5 MO), Tumor Site: Type of Lesion: LUNG: BENIGN OR MALIGNANT NEOPLASM", "value": "active; positive"}, {"measurement": "carcinogen call", "setting": "Species: RAT, Strain/Sex: F344/FEMALE, Route: INHALATION, Dose: 0, 2.5, 6.5 MG/M3 OF AIR 16 HR/D 5 D/WK FOR UP TO 24 MO (STUDY DURATION: LIFE SPAN), Dose: 0, 2.5, 6.5 MG/M3 OF AIR 16 HR/D 5 D/WK FOR UP TO 24 MO (STUDY DURATION: LIFE SPAN), Tumor Site: Type of Lesion: LUNG: MALIGNANT TUMOR", "value": "active; positive"}, {"measurement": "carcinogen call", "setting": "Species: RAT, Strain/Sex: F344/MALE, Route: INHALATION, Dose: 0, 2.5, 6.5 MG/M3 IN AIR 16 HR/D 5 D/WK FOR 24 MO (STUDY DURATION: 25.5 MO), Dose: 0, 2.5, 6.5 MG/M3 IN AIR 16 HR/D 5 D/WK FOR 24 MO (STUDY DURATION: 25.5 MO)", "value": "inactive; negative"}, {"measurement": "carcinogen call", "setting": "Species: RAT, Strain/Sex: F344/MALE, Route: INHALATION, Dose: 0, 2.5, 6.5 MG/M3 OF AIR 16 HR/D 5 D/WK FOR UP TO 24 MO (STUDY DURATION: LIFE SPAN), Dose: 0, 2.5, 6.5 MG/M3 OF AIR 16 HR/D 5 D/WK FOR UP TO 24 MO (STUDY DURATION: LIFE SPAN), Tumor Site: Type of Lesion: LUNG: MALIGNANT TUMOR", "value": "active; positive"}, {"measurement": "carcinogen call", "setting": "Species: RAT, Strain/Sex: WISTAR/FEMALE, Route: INHALATION, Dose: 0, 7.4 MG/M3 18 HR/D 5 D/WK FOR 4 MO INCREASED TO 12.2 MG/M3 FOR 20 MO FOLLOWED BY CLEAN AIR FOR 6 MO (STUDY DURATION: 3, Tumor Site: Type of Lesion: LUNG: TUMOR", "value": "active; positive"}]}, {"smiles": "CC(=O)[C@H]1CC[C@H]2[C@@H]3CCC4=CC(=O)CC[C@]4(C)[C@H]3CC[C@]12C", "values": [{"measurement": "carcinogen call", "setting": "Species: MOUSE, Route: SUBCUTANEOUS, Tumor Site: Type of Lesion: MAMMARY GLAND, OVARIES, UTERUS, Tumor Site: Type of Lesion: MAMMARY GLAND, OVARIES, UTERUS", "value": "active; positive"}]}, {"smiles": "COc1c(Cl)c(Cl)c(Cl)c(Cl)c1Cl", "values": [{"measurement": "carcinogen call", "setting": "Species: MOUSE, Strain/Sex: B6C3F1/FEMALE, Route: GAVAGE, Dose: 0, 20, 40 MG/KG IN CORN OIL 5 D/WK FOR 104 WK (STUDY DURATION: 105 WK), Dose: 0, 20, 40 MG/KG IN CORN OIL 5 D/WK FOR 104 WK (STUDY DURATION: 105 WK)", "value": "inactive; negative"}, {"measurement": "carcinogen call", "setting": "Species: MOUSE, Strain/Sex: B6C3F1/MALE, Route: GAVAGE, Dose: 0, 20, 40 MG/KG IN CORN OIL 5 D/WK FOR 104 WK (STUDY DURATION: 105 WK), Dose: 0, 20, 40 MG/KG IN CORN OIL 5 D/WK FOR 104 WK (STUDY DURATION: 105 WK), Tumor Site: Type of Lesion: ADRENAL MEDULLA: BENIGN PHEOCHROMOCYTOMA, LIVER: HEMANGIOSARCOMA", "value": "active; positive"}, {"measurement": "carcinogen call", "setting": "Species: RAT, Strain/Sex: F344/FEMALE, Route: GAVAGE, Dose: 0, 20, 40 MG/KG IN CORN OIL 5 D/WK FOR 103 WK (STUDY DURATION: 104 WK), Dose: 0, 20, 40 MG/KG IN CORN OIL 5 D/WK FOR 103 WK (STUDY DURATION: 104 WK), Tumor Site: Type of Lesion: ADRENAL MEDULLA: BENIGN PHEOCHROMOCYTOMA", "value": "equivocal"}, {"measurement": "carcinogen call", "setting": "Species: RAT, Strain/Sex: F344/MALE, Route: GAVAGE, Dose: 0, 10, 20, 40 MG/KG IN CORN OIL 5 D/WK FOR 103 WK (STUDY DURATION: 104 WK), Dose: 0, 10, 20, 40 MG/KG IN CORN OIL 5 D/WK FOR 103 WK (STUDY DURATION: 104 WK), Tumor Site: Type of Lesion: ADRENAL MEDULLA: BENIGN PHEOCHROMOCYTOMA", "value": "active; positive"}]}, {"smiles": "Cc1ncc([N+](=O)[O-])n1CCO", "values": [{"measurement": "carcinogen call", "setting": "Species: MOUSE, Route: ORAL, Tumor Site: Type of Lesion: LUNG, LYMPHATIC SYSTEM: LYMPHOMA (NOS)", "value": "active; positive"}, {"measurement": "carcinogen call", "setting": "Species: RAT, Route: ORAL, Tumor Site: Type of Lesion: MAMMARY GLAND", "value": "active; positive"}]}, {"smiles": "CCOP(=S)(OCC)Oc1ccc2c(C)c(Cl)c(=O)oc2c1", "values": [{"measurement": "carcinogen call", "setting": "Species: MOUSE, Strain/Sex: B6C3F1/FEMALE, Route: ORAL, Dose: 0, 10, 20 PPM IN DIET, Dose: 0, 10, 20 PPM IN DIET", "value": "inactive; negative"}, {"measurement": "carcinogen call", "setting": "Species: MOUSE, Strain/Sex: B6C3F1/MALE, Route: ORAL, Dose: 0, 10, 20 PPM IN DIET, Dose: 0, 10, 20 PPM IN DIET", "value": "inactive; negative"}, {"measurement": "carcinogen call", "setting": "Species: RAT, Strain/Sex: F344/FEMALE, Route: ORAL, Dose: 0, 10, 20 PPM IN DIET, Dose: 0, 10, 20 PPM IN DIET", "value": "inactive; negative"}, {"measurement": "carcinogen call", "setting": "Species: RAT, Strain/Sex: F344/MALE, Route: ORAL, Dose: 0, 10, 20 PPM IN DIET, Dose: 0, 10, 20 PPM IN DIET", "value": "inactive; negative"}, {"measurement": "carcinogen call", "setting": "Species: Rat, Strain/Sex: Wistar/Female (50/group), Route: Oral, Dose: 0 (1% peanut oil), 1, 5, 25 ppm in diet for 24 mo, test material purity 99.2%, Dose: 0 (1% peanut oil), 1, 5, 25 ppm in diet for 24 mo, test material purity 99.2%", "value": "inactive; negative. according to dpr evaluator; original data not presented. cholinesteras"}, {"measurement": "carcinogen call", "setting": "Species: Rat, Strain/Sex: Wistar/Male (50/group), Route: Oral, Dose: 0 (1% peanut oil), 1, 5, 25 ppm in diet for 24 mo, test material purity 99.2%, Dose: 0 (1% peanut oil), 1, 5, 25 ppm in diet for 24 mo, test material purity 99.2%", "value": "inactive; negative. according to dpr evaluator; original data not presented. cholinesteras"}]}]}
